By IC50 is commonly meant the concentration needed to halve the response being measured. As usually defined, the CC50 is the concentration that lowers cell viability or growth by half. What is called melting point is the temperature, or range, at which the solid turns liquid.

One data set relates to breast cancer (MCF7). As to the kind of experiment: MTT cytotoxicity assay, MCF7. The data set is classed as cell-based. Particulars: Homo sapiens, MCF7, 48 h, read-out: IC50 MCF7. As to the method: (§1) The in vitro cytotoxicity of our compounds was determined using MTT assay. […] The results were analyzed using GraphPad Prism 5.0, and cytotoxicity was expressed as IC50 for three individual experiments.
In general terms: Tetrazolium dyes change colour on reduction, which living cells bring about.

The target of data set [1] is T1, CDK9 (Homo sapiens, UniProt P50750).
T1 construct: purchased BPS Biosciences (San Diego, CA, USA) 79628
T1 sequence (P50750 whole entry): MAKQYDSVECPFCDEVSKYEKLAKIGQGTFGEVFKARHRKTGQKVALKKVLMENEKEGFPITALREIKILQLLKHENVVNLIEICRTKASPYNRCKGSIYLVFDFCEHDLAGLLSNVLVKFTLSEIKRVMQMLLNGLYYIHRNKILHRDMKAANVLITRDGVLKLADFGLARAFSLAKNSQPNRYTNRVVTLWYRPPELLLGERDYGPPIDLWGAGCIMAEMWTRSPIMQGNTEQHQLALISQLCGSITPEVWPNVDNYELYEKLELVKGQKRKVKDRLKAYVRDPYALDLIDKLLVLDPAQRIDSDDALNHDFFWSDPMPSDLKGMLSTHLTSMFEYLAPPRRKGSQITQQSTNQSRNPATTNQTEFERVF
T1 sequence (O60563 whole entry partner): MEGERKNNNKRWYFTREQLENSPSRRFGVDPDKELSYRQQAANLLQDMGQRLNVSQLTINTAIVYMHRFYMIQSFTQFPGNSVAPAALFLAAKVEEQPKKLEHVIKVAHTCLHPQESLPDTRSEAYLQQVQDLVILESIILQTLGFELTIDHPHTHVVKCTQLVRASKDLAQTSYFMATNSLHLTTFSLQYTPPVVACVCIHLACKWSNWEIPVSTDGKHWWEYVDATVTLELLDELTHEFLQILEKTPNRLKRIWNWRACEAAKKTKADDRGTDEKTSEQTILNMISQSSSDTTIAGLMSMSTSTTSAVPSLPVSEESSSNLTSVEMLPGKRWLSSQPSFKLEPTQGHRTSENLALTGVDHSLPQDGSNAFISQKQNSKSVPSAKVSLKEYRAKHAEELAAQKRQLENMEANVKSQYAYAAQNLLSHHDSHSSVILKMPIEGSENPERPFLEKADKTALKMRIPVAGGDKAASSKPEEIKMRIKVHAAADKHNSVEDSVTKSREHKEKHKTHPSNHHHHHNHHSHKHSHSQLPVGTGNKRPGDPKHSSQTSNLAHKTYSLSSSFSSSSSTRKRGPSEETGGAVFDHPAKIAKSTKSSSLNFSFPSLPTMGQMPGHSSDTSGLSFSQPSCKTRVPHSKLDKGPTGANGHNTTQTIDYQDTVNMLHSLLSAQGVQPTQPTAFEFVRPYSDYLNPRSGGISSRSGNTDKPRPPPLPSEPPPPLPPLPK
As to the kind of experiment: biochemical. The settings on record: biochemical assay; mean ± standard deviation of three individual experiments; read-out: CDK9 Inhibitory Activity IC50. As to the method:
In this study, all the newly synthesized compounds were assessed against CDK9 in a biochemical assay, and dinaciclib was used as a standard compound.
The luminescence was measured using a microplate reader. The results were analyzed using GraphPad Prism 5.0, and the kinase inhibitory activity was expressed as IC50 for three individual experiments. In the assay, dinaciclib was used as a positive control, and DMSO was used as negative control.

The test system of data set [2] is chronic myelogenous leukaemia. The data set can be described thus: cells. The settings on record: K652, 48 h, read-out: IC50 K652. On the procedure: as §1
Data set [3] relates to colorectal cancer (HCT116). The data set can be described thus: cells. The settings on record: Homo sapiens, HCT-116, 48 h, read-out: IC50 HCT116. As to the method:
as §1

For data set [4], the system named is MCF7, HCT116 and K652 cell lines. The data set can be described thus: MTT cytotoxicity assay, average of three cell lines. The data set is classed as cell-based. The settings on record: read-out: average IC50 of three cell lines. On the procedure:
as §1

Data set [5] in a line: Cytotoxicity on target cells in the antiviral assay (crystal violet). On the procedure:
The results were analyzed using GraphPad Prism 5.0, and cytotoxicity was expressed as IC50 for three individual experiments. In the assay, ribavirin was used as a positive control, and DMSO was used as a negative control.

The next data set relates to normal cells FHC. The data set can be described thus: cells. The settings on record: for average selectivity over three cancer cells: normal cells FHC vs MCF7, HCT116, K652; for IC50: read-out: FHC IC50. As to the method: as §1
For another data set, the system named is human coronavirus 229E. The data set can be described thus: Cytopathic effect (CPE) inhibition assay, crystal violet method. The data set is classed as cell-based. Particulars: read-out: IC50 (229E). As to the method:
The anti-coronaviral activity of the new compounds was assessed using a cytopathic effect (CPE) inhibition assay against human coronavirus 229E. Ribavirin (well-established antiviral agent) was used as standard in this assay.
Background: Damage to the host cells serves as the signal in cytopathic effect assays.

Data set [6] addresses T1, CDK9. Particulars: identified by virtual screening from natural resources; cited from earlier work.

Where two headings read alike, the source gives them in different places.

For `CC(C)(C)Nc1c(-c2ccccc2)nc2cnccn12` [Compound 1a, N-(Tert-butyl)-2-phenylimidazo[1,2-a]pyrazin-3-amine], the IC50 in the data set with breast cancer (MCF7) was determined as 405 ± 5.05 µM; on CDK9 [1] it was 1.67 ± 0.025 µM; in data set [2], 310 ± 4.49 µM; in data set [3], 597 ± 8.25 µM; in data set [4], 437 µM.

Turning to `c1ccc(-c2nc3cnccn3c2NC2CCCCC2)cc1` [Compound 1b, N-Cyclohexyl-2-phenylimidazo[1,2-a]pyrazin-3-amine], the IC50 in the data set on breast cancer (MCF7) amounted to 3.01 ± 0.04 µM; on CDK9 [1], 0.25 ± 0.004 µM; in data set [2], 50.3 ± 0.8 µM; in data set [3], 1.43 ± 0.02 µM; with normal cells FHC, 123 ± 19.1 µM; with human coronavirus 229E, 146 µM. The IC50 in [4] came out at 18.2 µM. In addition, the CC50 in [5] is 299 µM. Further, the “average selectivity over three cancer cells” value (from here on “average selectivity”) with normal cells FHC came out at 43 fold.

In the case of `c1ccc(CNc2c(-c3ccccc3)nc3cnccn23)cc1` [Compound 1c, N-Benzyl-2-phenylimidazo[1,2-a]pyrazin-3-amine], the IC50 in the data set on breast cancer (MCF7) stood at 99 ± 1.39 µM; on CDK9 [1], 1.01 ± 0.017 µM; in [2] it was 88.6 ± 8.25 µM; in data set [3] it was 59.3 ± 5.05 µM.

Regarding `COc1ccc(Nc2c(-c3ccccc3)nc3cnccn23)cc1` [Compound 1d, N-(4-Methoxyphenyl)-2-phenylimidazo[1,2-a]pyrazin-3-amine], the IC50 came to 244 ± 3.62 µM with breast cancer (MCF7), 1.04 ± 0.019 µM at CDK9 [1], 77.4 ± 1.34 µM in data set [2] and 75.2 ± 1.24 µM in data set [3].

Consider `CC(C)(C)Nc1c(-c2ccc(O)c(O)c2)nc2cnccn12` [Compound 2a, 4-(3-(Tert-butylamino)imidazo[1,2-a]pyrazin-2-yl)benzene-1,2-diol], for which the melting point was in the range of 270 to 272 °C. The IC50 with breast cancer (MCF7) is 76.8 ± 1.08 µM. In addition, the IC50 on CDK9 [1] was determined as 1.14 ± 0.019 µM. In addition, the IC50 in data set [2] amounted to 22.8 ± 0.37 µM. Moreover, in data set [3], the IC50 amounted to 35.9 ± 0.56 µM.

On to `Oc1ccc(-c2nc3cnccn3c2NC2CCCCC2)cc1O` [Compound 2b, 4-(3-(Cyclohexylamino)imidazo[1,2-a]pyrazin-2-yl)benzene-1,2-diol], for which the IC50 with breast cancer (MCF7) was 119 ± 1.82 µM; at CDK9 [1] it was 0.89 ± 0.016 µM; in [2], 54.2 ± 0.96 µM; in [3], 105 ± 1.78 µM.

As to `Oc1ccc(-c2nc3cnccn3c2NCc2ccccc2)cc1O` [Compound 2c, 4-(3-(Benzylamino)imidazo[1,2-a]pyrazin-2-yl)benzene-1,2-diol], the IC50 with breast cancer (MCF7) is 39.7 ± 0.62 µM; on CDK9 [1], 0.31 ± 0.006 µM; in data set [2], 88.6 ± 1.09 µM; in [3], 59.9 ± 1.04 µM.

For the compound `COc1ccc(Nc2c(-c3ccc(O)c(O)c3)nc3cnccn23)cc1` [Compound 2d, 4-(3-((4-Methoxyphenyl)amino)imidazo[1,2-a]pyrazin-2-yl)benzene-1,2-diol], the melting point fell in the range of 150 to 152 °C. For the same compound, in the data set with breast cancer (MCF7), the IC50 was determined as 80.4 ± 1.31 µM. Moreover, the IC50 at CDK9 [1] was determined as 2.03 ± 0.04 µM. Also, the IC50 in data set [2] was determined as 136 ± 2.59 µM. Moreover, in [3], the IC50 was determined as 162 ± 2.41 µM. For the same compound, the IC50 in data set [4] was 126 µM.

For `CC(C)(C)Nc1c(-c2ccncc2)nc2cnccn12` [Compound 3a, N-(Tert-butyl)-2-(pyridin-4-yl)imidazo[1,2-a]pyrazin-3-amine], the concentration for half-maximal inhibition (IC50) with breast cancer (MCF7) worked out at 4.3 ± 0.5 µM; at CDK9 [1] it was 0.26 ± 0.004 µM; in [2] it was 46 ± 0.67 µM; in data set [3], 2.69 ± 0.04 µM; in the data set on normal cells FHC, 196 ± 2.79 µM; in the data set with human coronavirus 229E, 394 µM. In [4], the IC50 was found to be 17.7 µM. The compound also yielded a CC50 in [5] of 940 µM. In addition, the “average selectivity” value in the data set on normal cells FHC is 41 fold.

For the compound `c1cc(-c2nc3cnccn3c2NC2CCCCC2)ccn1` [Compound 3b, N-Cyclohexyl-2-(pyridin-4-yl)imidazo[1,2-a]pyrazin-3-amine], the IC50 in the data set with breast cancer (MCF7) worked out at 31.7 ± 0.44 µM; at CDK9 [1], 0.41 ± 0.007 µM; in data set [2] it was 67.8 ± 1.08 µM; in data set [3], 8.96 ± 0.14 µM; in the data set with human coronavirus 229E, 57 µM. Also, half-maximal cytotoxicity in data set [5] (CC50) was put at 407 µM.

As to `c1ccc(CNc2c(-c3ccncc3)nc3cnccn23)cc1` [Compound 3c, N-Benzyl-2-(pyridin-4-yl)imidazo[1,2-a]pyrazin-3-amine], the IC50 with breast cancer (MCF7) was 8.59 ± 0.12 µM; on CDK9 [1], 0.16 ± 0.003 µM; in data set [2], 4.45 ± 0.06 µM; in [3], 7.96 ± 0.12 µM; in the data set on normal cells FHC, 97.2 ± 1.58 µM; in the data set with human coronavirus 229E, 379 µM. Also, the IC50 in [4] stood at 6.66 µM. Besides, it took 472 µM to reach half-maximal cytotoxicity in data set [5] (CC50). Also, the “average selectivity” value in the data set with normal cells FHC was found to be 15 fold.

Take `COc1ccc(Nc2c(-c3ccncc3)nc3cnccn23)cc1` [Compound 3d, N-(4-Methoxyphenyl)-2-(pyridin-4-yl)imidazo[1,2-a]pyrazin-3-amine]: the IC50 in the data set with breast cancer (MCF7) turned out to be 118 ± 1.17 µM; on CDK9 [1] it was 0.8 ± 0.014 µM; in data set [2] it was 46.6 ± 0.48 µM; in [3] it was 27.9 ± 1.88 µM.

`CC(C)(C)Nc1c(-c2ccsc2)nc2cnccn12` [Compound 4a, N-(Tert-butyl)-2-(thiophen-3-yl)imidazo[1,2-a]pyrazin-3-amine]: the IC50 was found to be 25.4 ± 0.32 µM in the data set with breast cancer (MCF7); 0.73 ± 0.011 µM on CDK9 [1]; 12.77 ± 0.06 µM in data set [2]; 61.31 ± 0.12 µM in data set [3]; 76.1 ± 1.11 µM with normal cells FHC. The “average selectivity” value with normal cells FHC amounted to 3.5 fold.

`c1cn2c(NC3CCCCC3)c(-c3ccsc3)nc2cn1` [Compound 4b, N-Cyclohexyl-2-(thiophen-3-yl)imidazo[1,2-a]pyrazin-3-amine] had a melting point of 170 to 172 °C. Also, the IC50 in the data set with breast cancer (MCF7) came to 181 ± 2.63 µM. Also, the IC50 at CDK9 [1] was determined as 1.32 ± 0.006 µM. Further, the IC50 in [2] was determined as 46.6 ± 0.76 µM. Also, the IC50 in [3] is 27.9 ± 0.43 µM.

Regarding `c1ccc(CNc2c(-c3ccsc3)nc3cnccn23)cc1` [Compound 4c, N-Benzyl-2-(thiophen-3-yl)imidazo[1,2-a]pyrazin-3-amine], the IC50 in the data set with breast cancer (MCF7) was determined as 55.8 ± 0.8 µM; on CDK9 [1], 0.71 ± 0.012 µM; in data set [2] it was 69.2 ± 3.89 µM; in data set [3], 80.6 ± 1.26 µM.

For the compound `COc1ccc(Nc2c(-c3ccsc3)nc3cnccn23)cc1` [Compound 4d, N-(4-Methoxyphenyl)-2-(thiophen-3-yl)imidazo[1,2-a]pyrazin-3-amine], the IC50 in the data set with breast cancer (MCF7) was 141 ± 2.13 µM; at CDK9 [1], 3.16 ± 0.058 µM; in [2] it was 87.2 ± 1.53 µM; in data set [3], 115 ± 1.93 µM.

As for `Oc1ccc(-c2nc3cnccn3c2NCc2cccs2)cc1O` [Compound 10], the IC50 on CDK9 [6] is 5.12 µM.

In turn, `NC(=O)c1ncn([C@@H]2O[C@H](CO)[C@@H](O)[C@H]2O)n1` [Ribavirin, reference compound] registered a CC50 in [5] of 160 µM. Further, the IC50 with human coronavirus 229E came to 114 µM.

Consider `CN[C@@H]1C[C@H]2O[C@@](C)([C@@H]1OC)n1c3ccccc3c3c4c(c5c6ccccc6n2c5c31)C(=O)NC4` [Staurosporine, reference compound], for which the IC50 in the data set with breast cancer (MCF7) is 18.4 ± 0.4 µM.

The values are drawn from PMC9319549, “Synthesis and Biological Evaluation of Imadazo[1,2-a]pyrazines as Anticancer and Antiviral Agents through Inhibition of CDK9 and Human Coronavirus” (Pharmaceuticals, 2022).
